# System: Human primary T cells
# Test: IL-2 ELISA, human primary T cell, anti-CD3+CD28 stimulation
# Type: cell-based
# Conditions: T-cell; IL-2 quantified by ELISA; human primary T cells stimulated with αCD3 and αCD28, 24 hours
# Experimental: Human primary T cell isolation and culture: Human primary T cells were prepared as follows. Whole blood was obtained from a healthy volunteer, mixed 1:1 with PBS, layered on to Ficoll Hypaque (Amersham Pharmacia Biotech, Piscataway, N.J., Catalog #17-1440-03) in 2:1 blood/PBS:ficoll ratio and centrifuged for 30 minutes at 4° C. at 1750 rpm. The cells at the serum: ficoll interface were recovered and washed twice with 5 volumes of PBS. These freshly isolated human peripheral blood mononuclear cells were cultured in Yssel's medium containing 40 U/mL IL2 in a flask pre-coated with 1 μg/mL αCD3 and 5 μg/mL αCD28 (Anti-Human CD3, BD Pharmingen Catalog #555336, Anti-Human CD28, Beckman Coulter Catalog #IM1376). The cells were stimulated for 3-4 days, then transferred to a fresh flask and maintained in RPMI (RPMI-1640 with L-Glutamine; Mediatech, Inc., Herndon Va., cat. #10-040-CM) with 10% FBS and 40 U/mL IL-2. The primary T-cells were then washed twice with PBS to remove the IL-2.
# Primary T cell stimulation and IL2 ELISA: Human primary T cells (100,000 cells per well) were pre-incubated with or without test compound in Yssel's medium for 1 hour at 37° C. Cells were then stimulated by transferring them to round-bottom 96-well plates pre-coated with 1 μg/ml αCD3 and 5 μg/ml αCD28. For counter assay, cells were instead stimulated by adding 8× stock solutions of PMA and ionomycin in Yssels (for final concentrations of 0.5 ng/ml PMA and 0.1 uM ionomycin, both from Calbiochem). Cells were incubated at 37° C. for 24 hours before 100 μL supernatants were harvested for quantification of IL-2 by ELISA using Human IL-2 Duoset ELISA Kit from R and D Systems, Cat. # DY202E.
row,Compound,IC50 [µM]
1,"Cn1nnn(-c2cc(Nc3ncc(F)c(NC4CC(C)(C)NC(C)(C)C4)n3)cc(OC3COC3)c2)c1=O [I-25, 1-(3-(4-(2,2,6,6-tetramethylpiperidin-4-ylamino)-5-fluoropyrimidin-2-ylamino)-5-(oxetan-3-yloxy)phenyl)-4-methyl-1H-tetrazol-5(4H)-one]",< 0.5
2,CN1C(C)(C)CC(Nc2nc(Nc3ccc(OC4CCOCC4)c(-n4nnn(C)c4=O)c3)ncc2F)CC1(C)C [I-26],< 0.5
3,"Cn1nnn(-c2cc(Nc3ncc(F)c(NC4CC(C)(C)NC(C)(C)C4)n3)ccc2OC2CCOCC2)c1=O [I-27, N2-{4-(tetrahydropyran-4-yloxy)-[3-(4-methyl)-1,2,3,4-tetrazol-5-one-1-yl]}phenyl-5-fluoro-N4-(2,2,6,6-tetramethylpyridin-4-yl)-2,4-pyrimidinediamine]",< 0.5
4,"Cn1nnn(-c2cc(Nc3ncc(F)c(NC4CC(C)(C)NC(C)(C)C4)n3)ccc2OCC2(C)COC2)c1=O [I-28, 5-fluoro-N2-{4-(3-methyloxetan-3-yl)methody-3-[(4-methyl)-1,2,3,4-tetrazol-5-one-1-yl]}phenyl-N4-(2,2,6,6-tetramethylpiperidin-4-yl)-2,4pyrimidinediamine]",< 0.5
5,"CN1C(C)(C)CC(Nc2nc(Nc3ccc(Cl)c(-n4nnn(C)c4=O)c3)ncc2F)CC1(C)C [I-29, N2-{4-chloro-[3-(4-methyl)-1,2,3,4-tetrazol-5-one-1-yl]}phenyl-5-fluoro-N4-(1,2,2,6,6-pentamethylpiperidin-4-yl)-2,4-pyrimidinediamine]",< 0.5
6,"Cn1nnn(-c2cc(Nc3ncc(F)c(NC4CC(C)(C)NC(C)(C)C4)n3)ccc2Cl)c1=O [I-30, N2-{4-chloro-[3-(4-methyl)-1,2,3,4-tetrazol-5-one-1-yl]}phenyl-5-fluoro-N4-(2,2,6,6-tetramethylpiperidin-4-yl)-2,4-pyrimidinediamine]",< 0.5
7,"COc1cc(Nc2ncc(F)c(NC3CC(C)(C)N(C)C(C)(C)C3)n2)cc(-n2nnn(C)c2=O)c1 [I-31, N2-{5-methody-[3-(4-methyl)-1,2,3,4-tetrazol-5-one-1-yl]}phenyl-5-fluoro-N4-(1,2,2,6,6-pentamethylpiperidin-4-yl)-2,4-pyrimidinediamine]",< 0.5
8,"COc1cc(Nc2ncc(F)c(NC3CC(C)(C)NC(C)(C)C3)n2)cc(-n2nnn(C)c2=O)c1 [I-32, N2-{5-methody-[3-(4-methyl)-1,2,3,4-tetrazol-5-one-1-yl]}phenyl-5-fluoro-N4-(2,2,6,6-tetramethylpiperidin-4-yl)-2,5-pyrimidinediamine]",< 0.5
9,"Cn1nnn(-c2cc(Nc3ncc(F)c(NC4CC(C)(C)NC(C)(C)C4)n3)ccc2C2CC2)c1=O [I-33, N2-{4-cyclopropyl-[3-(4-methyl)-1,2,3,4-tetrazol-5-one-1-yl]}phenyl-5-fluoro-N4-(2,2,6,6-tetramethylpiperidin-4-yl)-2,4-pyrimidinediamine]",< 0.5
10,"CN1C(C)(C)CC(Nc2nc(Nc3ccc(C4CC4)c(-n4nnn(C)c4=O)c3)ncc2F)CC1(C)C [I-34, N2-{4-cyclopropyl-[3-(4-methyl)-1,2,3,4-tetrazol-5-one-1-yl]}phenyl-5-fluoro-N4-(1,2,2,6,6-pentamethylpiperidin-4-yl)-2,4-pyrimidinediamine]",< 0.5
11,"Cn1nnn(-c2cc(Nc3ncc(F)c(NC4CC(C)(C)NC(C)(C)C4)n3)cc(C3CC3)c2)c1=O [I-35, N2-{5-cyclopropyl-[3-(4-methyl)-1,2,3,4-tetrazol-5-one-1-yl]}phenyl-5-fluoro-N4-(2,2,6,6-tetramethylpiperidin-4-yl)-2,4-pyrimidinediamine]",< 0.5
12,"CN1C(C)(C)CC(Nc2nc(Nc3cc(C4CC4)cc(-n4nnn(C)c4=O)c3)ncc2F)CC1(C)C [I-36, N2-{5-cyclopropyl-[3-(4-methyl)-1,2,3,4-tetrazol-5-one-1-yl]}phenyl-5-fluoro-N4-(1,2,2,6,6-pentamethylpiperidin-4-yl)-2,4-pyrimidinediamine]",< 0.5
13,"Cn1nnn(-c2cc(Cl)cc(Nc3ncc(F)c(NC4CC(C)(C)NC(C)(C)C4)n3)c2)c1=O [I-37, N2-{5-chloro-[3-(4-methyl)-1,2,3,4-tetrazol-5-one-1-yl]}phenyl-5-fluoro-N4-(2,2,6,6-tetramethylpiperidin-4-yl)-2,4-pyrimidinediamine]",0.51 to 2.99

# Second part, the compound after the results:
row,IC50 [µM],Compound
1,< 0.5,"Cn1nnn(-c2cc(Nc3ncc(F)c(NC4CC(C)(C)NC(C)(C)C4)n3)cc(C(F)(F)F)c2Cl)c1=O [I-38, N2-{4-chloro-5-trifluoromethyl-[3-(4-methyl)-1,2,3,4-tetrazol-5-one-1-yl]}phenyl-5-fluoro-N4-(2,2,6,6-tetramethylpiperidin-4-yl)-2,4-pyrimidinediamine]"
2,< 0.5,"Cn1nnn(-c2cc(Nc3ncc(F)c(NC4CC(C)(C)NC(C)(C)C4)n3)cc(C(F)(F)F)c2C2CC2)c1=O [I-39, N2-{4-cyclopropyl-5-trifluoromethyl-[3-(4-methyl)-1,2,3,4-tetrazol-5-one-1-yl]}phenyl-5-fluoro-N4-(2,2,6,6-tetramethylpiperidin-4-yl)2,5-pyrimidinediamine]"
3,< 0.5,"CN1C(C)(C)CC(Nc2nc(Nc3cc(-n4nnn(C)c4=O)c(C4CC4)c(C(F)(F)F)c3)ncc2F)CC1(C)C [I-40, N2-{4-cyclopropyl-5-trifluoromethyl-[3-(4-methyl)-1,2,3,4-tetrazol-5-one-1-yl]}phenyl-5-fluoro-N4-(1,2,2,6,6-pentamethylpiperidin-4-yl)-2,4-pyrimidinediamine]"
4,< 0.5,"Cn1nnn(-c2cc(Nc3ncc(C#N)c(NC4CC(C)(C)NC(C)(C)C4)n3)cc(C(F)(F)F)c2C2CC2)c1=O [I-41, 5-cyano-N2-{4-cyclopropyl-5-trifluoromethyl-[3-(4-methyl)-1,2,3,4-tetrazol-5-one-1-yl]}phenyl-N4-(2,2,6,6-tetramethylpiperidin-4-yl)-2,4-pyrimidinediamine]"
5,< 0.5,"CN1C(C)(C)CC(Nc2nc(Nc3cc(-n4nnn(C)c4=O)c(C4CC4)c(C(F)(F)F)c3)ncc2C#N)CC1(C)C [I-42, 5-cyano-N2-{4-cyclopropyl-5-trifluoromethyl-[3-(4-methyl)-1,2,3,4-tetrazol-5-one-1-yl]}phenyl-N4-(1,2,2,6,6-pentamethylpiperidin-4-yl)-2,4-pyrimidinediamine]"
6,< 0.5,"Cn1nnn(-c2cc(Nc3ncc(F)c(NC4CC(C)(C)NC(C)(C)C4)n3)cc(C3CC3)c2F)c1=O [I-43, N2-{5-cyclopropyl-4-fluoro-[3-(4-methyl)-1,2,3,4-tetrazol-5-one-1-yl]}phenyl-5-fluoro-N4-(2,2,6,6-tetramethylpiperidin-4-yl)-2,4-pyrimidinediamine]"
7,< 0.5,"Cn1nnn(-c2cc(Nc3ncc(C#N)c(NC4CC(C)(C)NC(C)(C)C4)n3)cc(C3CC3)c2F)c1=O [I-44, 5-cyano-N2-{5-cyclopropyl-4-fluoro-[3-(4-methyl)-1,2,3,4-tetrazol-5-one-1-yl]}phenyl-N4-(2,2,6,6-tetramethylpiperidin-4-yl)-2,4-pyrimidinediamine]"
8,< 0.5,"Cc1cc(Nc2ncc(F)c(NC3CC(C)(C)N(C)C(C)(C)C3)n2)cc(-n2nnn(C)c2=O)c1C [I-45, N2-(4,5-dimethyl-3-(4-methyl-4,5-dihydro-5-oxo-1H-tetrazol-1-yl)phenyl)-5-fluoro-N4-(1,2,2,6,6-pentamethylpiperidin-4-yl)pyrimidine-2,4-diamine]"
9,< 0.5,"Cc1cc(Nc2ncc(F)c(NC3CC(C)(C)NC(C)(C)C3)n2)cc(-n2nnn(C)c2=O)c1C [I-46, N2-(4,5-dimethyl-3-(4-methyl-4,5-dihydro-5-oxo-1H-tetrazol-1-yl)phenyl)-5-fluoro-N4-(2,2,6,6-tetramethylpiperidin-4-yl)pyrimidine-2,4-diamine]"
10,< 0.5,"CN1C(C)(C)CC(Nc2nc(Nc3cc(-n4nnn(C)c4=O)cc(C(F)(F)F)c3)ncc2F)CC1(C)C [I-47, N2-(3-(4-methyl-4,5-dihydro-5-oxo-1H-tetrazol-1-yl)-5-trifluoromethylphenyl)-5-fluoro-N4-(1,2,2,6,6-pentamethylpiperidin-4-yl)pyrimidine-2,4-diamine]"
11,< 0.5,"Cn1nnn(-c2cc(Nc3ncc(F)c(NC4CC(C)(C)NC(C)(C)C4)n3)cc(C(F)(F)F)c2)c1=O [I-48, N2-(3-(4-methyl-4,5-dihydro-5-oso-1H-tetrazol-1-yl)-5-trifluoromethylphenyl)-5-fluoro-N4-(2,2,6,6-tetramethylpiperidin-4-yl)pyrimidine-2,5-diamine]"
12,< 0.5,CN1C(C)(C)CC(Nc2nc(Nc3cc(C#N)cc(-n4nnn(C)c4=O)c3)ncc2F)CC1(C)C [I-49]
13,< 0.5,"Cn1nnn(-c2cc(C#N)cc(Nc3ncc(F)c(NC4CC(C)(C)NC(C)(C)C4)n3)c2)c1=O [I-50, N2-(5-cyano-3-(4-methyl-4,5-dihysro-5-oxo-1H-tetrazol-1-yl)phenyl)-5-fluoro-N4-(2,2,6,6-tetramethylpiperidin-4-yl)pyrimidine-2,4-diamine]"
